One may read the IC50 as the concentration at which inhibition is half-maximal.

The values that follow come from ChEMBL document CHEMBL5046253, “Synthesis and bioevaluation of diaryl urea derivatives as potential antitumor agents for the treatment of human colorectal cancer” (Eur J Med Chem, 2022).

The target in test [1] is Phosphatidylinositol 4,5-bisphosphate 3-kinase catalytic subunit alpha isoform (Homo sapiens, UniProt P42336). Briefly: Inhibition of PI3Kalpha (unknown origin) using PIP2 as substrate in presence of ATP incubated for 60 mins by ADP-glo based luminescence assay.
Test [2] deals with Serine/threonine-protein kinase mTOR (Homo sapiens, UniProt P42345). Put plainly: Inhibition of mTOR (unknown origin) using U-Light-4E-BP1 peptide as a substrate in presence of ATP incubated for 45 mins by Lance ultra assay.
A further test relates to MDA-MB-231. Briefly: Antiproliferative activity against human MDA-MB-231 cells assessed as reduction in cell viability incubated for 48 hrs by MTT assay. The test is classed as functional, cell-based. Conditions: MDA-MB-231, 48 h. On the technique in general: Tetrazolium assays rely on reduction of a dye to a coloured formazan, in cell work by metabolically active cells.

A further test concerns HeLa. Put plainly: Antiproliferative activity against human HeLa cells assessed as reduction in cell viability incubated for 48 hrs by MTT assay. The test is classed as functional, cell-based.
The next test has as its system CNE-2. Put plainly: Antiproliferative activity against human CNE-2 cells assessed as reduction in cell viability incubated for 48 hrs by MTT assay. Conditions: CNE-2, 48 h. Format: functional, cell-based.
A further test deals with HCT-116. Briefly: Antiproliferative activity against human HCT-116 cells assessed as reduction in cell viability incubated for 48 hrs by MTT assay. The test is classed as functional, cell-based. Conditions: HCT-116, 48 h.
Another test relates to HepG2. Put plainly: Antiproliferative activity against human HepG2 cells assessed as reduction in cell viability incubated for 48 hrs by MTT assay. The test is classed as functional, cell-based. Conditions: HepG2, 48 h.
The test system of the next test is MCF7. Put plainly: Antiproliferative activity against human MCF7 cells assessed as reduction in cell viability incubated for 48 hrs by MTT assay. The test is classed as functional, cell-based. Conditions: MCF7, 48 h.

Sequence of Phosphatidylinositol 4,5-bisphosphate 3-kinase catalytic subunit alpha isoform (P42336 whole entry, canonical isoform): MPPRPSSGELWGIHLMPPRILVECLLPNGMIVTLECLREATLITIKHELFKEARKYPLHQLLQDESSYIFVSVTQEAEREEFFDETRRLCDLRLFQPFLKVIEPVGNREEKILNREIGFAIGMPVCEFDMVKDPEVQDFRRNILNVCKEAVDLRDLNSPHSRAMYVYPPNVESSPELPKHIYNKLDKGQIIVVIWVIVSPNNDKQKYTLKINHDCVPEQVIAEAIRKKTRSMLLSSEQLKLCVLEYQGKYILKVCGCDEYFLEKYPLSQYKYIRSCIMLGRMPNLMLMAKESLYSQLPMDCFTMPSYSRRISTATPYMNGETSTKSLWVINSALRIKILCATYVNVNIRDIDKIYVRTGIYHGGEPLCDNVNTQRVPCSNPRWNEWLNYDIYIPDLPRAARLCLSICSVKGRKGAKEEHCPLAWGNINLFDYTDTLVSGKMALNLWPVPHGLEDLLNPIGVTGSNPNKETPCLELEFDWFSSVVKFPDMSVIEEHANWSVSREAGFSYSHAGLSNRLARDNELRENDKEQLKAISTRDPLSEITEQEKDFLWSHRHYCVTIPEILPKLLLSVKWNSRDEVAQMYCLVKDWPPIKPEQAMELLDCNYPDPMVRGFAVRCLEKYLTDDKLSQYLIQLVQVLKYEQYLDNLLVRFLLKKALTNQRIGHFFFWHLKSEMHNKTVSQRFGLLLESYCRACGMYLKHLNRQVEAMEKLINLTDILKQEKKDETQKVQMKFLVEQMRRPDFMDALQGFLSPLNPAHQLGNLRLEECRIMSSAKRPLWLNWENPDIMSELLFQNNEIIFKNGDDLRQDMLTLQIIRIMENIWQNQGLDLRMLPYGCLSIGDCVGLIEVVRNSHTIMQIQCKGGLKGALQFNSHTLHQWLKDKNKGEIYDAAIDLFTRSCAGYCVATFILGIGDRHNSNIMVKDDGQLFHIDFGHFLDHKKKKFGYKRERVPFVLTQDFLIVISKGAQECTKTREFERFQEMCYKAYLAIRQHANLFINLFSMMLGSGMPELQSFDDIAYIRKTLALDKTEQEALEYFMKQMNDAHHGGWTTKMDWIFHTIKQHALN

With `CN(C)C1CCN(C(=O)c2cnc(Nc3ccc(-c4nc(N5CCOCC5)nc(N5CCOCC5)n4)cc3)nc2)CC1`, the IC50 in test [1] is more than 1 µM.

Consider `C[C@H]1COCCN1c1nc(-c2ccc(NC(=O)Nc3ccc(C(=O)N4CCC(C(N)=O)CC4)cc3)cc2)nc(N2CCOCC2)n1`, for which the IC50 in test [1] came out at 0.0043 µM; in test [2], 0.0012 µM; in the test on MDA-MB-231, 1.74 µM; in the test on HeLa, 0.21 µM; in the test with CNE-2, 0.67 µM; in the test with HCT-116, 0.38 µM. Moreover, in the test on HepG2, the IC50 stood at 0.54 µM.

For the compound `NC(=O)[C@H]1CCCN1C(=O)c1ccc(NC(=O)Nc2ccc(-c3cc(N4CCOCC4)nc(N4CCOCC4)n3)cc2)cc1`, the IC50 was determined as 0.0057 µM in test [1]; 0.0073 µM in test [2]; 16.4 µM in the test on MDA-MB-231; 6.98 µM with HeLa; 3.83 µM with CNE-2; 6.13 µM in the test with HCT-116.

For `C[C@H]1COCCN1c1ccnc(-c2ccc(NC(=O)Nc3ccc(C(=O)N4CCC[C@H]4C(N)=O)cc3)cc2)n1`, the IC50 in test [1] turned out to be 0.0287 µM; in test [2] it was 0.0092 µM.

With `NC(=O)[C@@H]1CCCN1C(=O)c1cnc(Nc2ccc(-c3nc(N4CCOCC4)nc(N4CCOCC4)n3)cc2)nc1`, in test [1], the IC50 was determined as 0.68 µM.

Take `NC(=O)[C@@H]1CCCN1C(=O)c1ccc(NC(=O)Nc2ccc(-c3nc(N4CCOCC4)nc(N4C[C@@H]5OCCO[C@H]5C4)n3)cc2)cc1`: the IC50 in test [1] came to 0.0043 µM; in test [2] it was 0.0057 µM; in the test on MDA-MB-231, 0.62 µM; in the test with HeLa, 0.56 µM; with CNE-2 it was 0.95 µM; in the test with HCT-116, 0.78 µM.

With `NC(=O)C1CCCCN1C(=O)c1ccc(NC(=O)Nc2ccc(-c3nc(N4CCOCC4)nc(N4CCOCC4)n3)cc2)cc1` (stereo not given), the IC50 in test [1] was determined as 0.0016 µM; in test [2] it was 0.003 µM; in the test on MDA-MB-231, 5.64 µM; in the test with HeLa, 10.3 µM; in the test with CNE-2 it was 1.74 µM; with HCT-116 it was 3.78 µM. The IC50 in the test with HepG2 amounted to 16.6 µM.

On to `NC(=O)[C@@H]1C[C@@H]2C[C@@H]2N1C(=O)c1ccc(NC(=O)Nc2ccc(-c3nc(N4CCOCC4)nc(N4CCOCC4)n3)cc2)cc1`, for which the IC50 turned out to be 0.0019 µM in test [1]; 0.002 µM in test [2]; 9.89 µM in the test on MDA-MB-231; 15.6 µM in the test with HeLa; 9.16 µM in the test on CNE-2; 1.96 µM in the test on HCT-116. For the same compound, the IC50 with MCF7 was found to be 10.5 µM.

As for `CN(C)C1CCN(C(=O)c2ccc(NC(=O)Nc3ccc(-c4cc(N5CCOCC5)nc(N5CCOCC5)n4)cc3)cc2)CC1`, the IC50 in test [1] came out at 0.0318 µM; in test [2], 0.0062 µM; in the test on MDA-MB-231 it was 7.57 µM; in the test on HeLa, 4.74 µM; in the test on CNE-2 it was 1.46 µM; in the test on HCT-116, 1.61 µM. Besides, the half-inhibitory concentration (IC50) with MCF7 is 9.28 µM.

As for `NC(=O)[C@@H]1CCCN1C(=O)Nc1ccc(-c2nccc(N3CCOCC3)n2)cc1`, the IC50 in test [1] is more than 1 µM; in test [2] it was 0.0103 µM.

On to `O=C(Nc1ccc(C(=O)N2CCCC2C(=O)O)cc1)Nc1ccc(-c2nc(N3CCOCC3)nc(N3CCOCC3)n2)cc1` (stereo not given), for which the IC50 in test [1] was 0.011 µM; in test [2], 0.0037 µM; in the test on MDA-MB-231, 29.1 µM; in the test on HeLa, 11.7 µM; in the test on CNE-2, 2.56 µM; with MCF7, 7.15 µM.

Regarding `NC(=O)C1CCCN1C(=O)c1ccc(NC(=O)Nc2ccc(-c3nc(N4CCOCC4)nc(N4CCOCC4)n3)cc2)cc1` (stereo not given), the IC50 turned out to be 0.0006 µM in test [1]; 0.0014 µM in test [2]; 6.78 µM in the test on MDA-MB-231; 8.6 µM in the test on HeLa; 0.52 µM in the test with CNE-2; 0.2 µM with HCT-116. Further, the IC50 in the test on MCF7 was found to be 4.85 µM.

With `NC(=O)[C@@H]1CCCN1C(=O)c1ccc(NC(=O)Nc2ccc(-c3cc(N4CCOCC4)ncn3)cc2)cc1`, in test [1], the IC50 was more than 1 µM.
